Data published in BindingDB's records for patent US9682141 (Intellikine LLC, 2017).

Key:
[1] = biological target: Phosphatidylinositol 4,5-bisphosphate 3-kinase catalytic subunit beta isoform (Homo sapiens, UniProt P42338); test: PI 3-Kinase HTRF Assay; details: 25 °C
[2] = biological target: Phosphatidylinositol 4,5-bisphosphate 3-kinase catalytic subunit alpha isoform (Homo sapiens, UniProt P42336); test: PI 3-Kinase HTRF Assay; details: 25 °C
Chain of Phosphatidylinositol 4,5-bisphosphate 3-kinase catalytic subunit alpha isoform (P42336 whole entry, canonical isoform): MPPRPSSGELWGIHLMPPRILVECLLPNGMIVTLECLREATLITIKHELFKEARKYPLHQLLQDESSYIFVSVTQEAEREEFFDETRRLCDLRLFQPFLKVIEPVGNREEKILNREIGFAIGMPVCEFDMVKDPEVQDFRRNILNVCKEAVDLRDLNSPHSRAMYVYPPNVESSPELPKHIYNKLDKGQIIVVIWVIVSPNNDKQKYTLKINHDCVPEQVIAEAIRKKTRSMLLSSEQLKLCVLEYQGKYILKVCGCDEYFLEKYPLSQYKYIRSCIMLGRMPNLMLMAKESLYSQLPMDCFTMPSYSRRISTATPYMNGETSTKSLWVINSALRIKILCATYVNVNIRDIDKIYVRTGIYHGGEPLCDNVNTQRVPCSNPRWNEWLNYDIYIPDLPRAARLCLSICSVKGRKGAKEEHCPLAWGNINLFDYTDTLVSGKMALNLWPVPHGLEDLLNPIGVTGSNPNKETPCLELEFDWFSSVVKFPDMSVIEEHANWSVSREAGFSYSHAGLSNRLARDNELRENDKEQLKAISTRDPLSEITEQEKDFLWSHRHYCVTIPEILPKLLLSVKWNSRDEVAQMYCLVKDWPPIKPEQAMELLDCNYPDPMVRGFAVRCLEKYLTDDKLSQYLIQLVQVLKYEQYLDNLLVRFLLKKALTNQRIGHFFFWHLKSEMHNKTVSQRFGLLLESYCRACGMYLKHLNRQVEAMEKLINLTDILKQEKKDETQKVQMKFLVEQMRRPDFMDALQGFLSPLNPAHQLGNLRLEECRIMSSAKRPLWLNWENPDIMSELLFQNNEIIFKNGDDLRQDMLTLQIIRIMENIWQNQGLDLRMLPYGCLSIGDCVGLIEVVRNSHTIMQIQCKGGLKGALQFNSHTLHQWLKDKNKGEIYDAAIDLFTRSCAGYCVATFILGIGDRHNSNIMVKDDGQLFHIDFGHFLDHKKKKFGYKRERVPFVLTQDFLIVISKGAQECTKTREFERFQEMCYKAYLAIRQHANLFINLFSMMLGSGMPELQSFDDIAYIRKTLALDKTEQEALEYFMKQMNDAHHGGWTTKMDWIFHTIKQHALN

Chain of Phosphatidylinositol 4,5-bisphosphate 3-kinase catalytic subunit beta isoform (P42338 whole entry, canonical isoform): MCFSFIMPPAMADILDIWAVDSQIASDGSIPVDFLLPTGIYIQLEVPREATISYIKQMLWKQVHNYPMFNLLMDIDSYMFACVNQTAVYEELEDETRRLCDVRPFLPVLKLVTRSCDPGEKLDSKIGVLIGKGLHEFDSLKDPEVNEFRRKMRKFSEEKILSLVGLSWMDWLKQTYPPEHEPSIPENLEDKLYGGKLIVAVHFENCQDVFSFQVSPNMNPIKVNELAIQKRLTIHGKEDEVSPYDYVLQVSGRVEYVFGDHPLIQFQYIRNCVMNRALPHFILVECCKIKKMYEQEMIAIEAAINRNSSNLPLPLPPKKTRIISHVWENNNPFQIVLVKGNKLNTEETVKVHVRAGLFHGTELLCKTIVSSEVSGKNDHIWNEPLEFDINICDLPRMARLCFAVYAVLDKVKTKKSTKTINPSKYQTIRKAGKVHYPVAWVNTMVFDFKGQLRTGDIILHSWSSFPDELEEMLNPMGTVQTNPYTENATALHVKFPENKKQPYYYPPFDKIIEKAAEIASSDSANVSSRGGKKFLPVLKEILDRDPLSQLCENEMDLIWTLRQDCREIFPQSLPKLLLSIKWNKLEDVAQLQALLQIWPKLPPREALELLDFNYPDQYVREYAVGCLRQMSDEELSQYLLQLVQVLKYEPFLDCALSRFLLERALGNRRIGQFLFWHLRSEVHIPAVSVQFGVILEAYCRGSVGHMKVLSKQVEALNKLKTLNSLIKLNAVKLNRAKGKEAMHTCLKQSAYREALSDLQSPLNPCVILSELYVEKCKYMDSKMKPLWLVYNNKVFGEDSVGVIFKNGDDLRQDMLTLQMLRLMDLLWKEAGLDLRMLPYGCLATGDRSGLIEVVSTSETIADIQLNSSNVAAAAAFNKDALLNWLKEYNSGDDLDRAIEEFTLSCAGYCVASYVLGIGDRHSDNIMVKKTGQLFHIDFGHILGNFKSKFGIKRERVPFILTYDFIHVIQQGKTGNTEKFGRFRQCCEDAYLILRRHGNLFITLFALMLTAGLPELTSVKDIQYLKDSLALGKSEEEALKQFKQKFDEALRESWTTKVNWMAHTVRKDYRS

IC50 [1] [µM] | IC50 [2] [µM] | Structure (SMILES)
< 10 | – | Nc1nc2cc(-c3ccc4ncc(-c5ccncc5)n4c3)ccc2o1 [US9682141, 6]
< 10 | < 0.1 | Nc1nc2cc(-c3ccc4ncn(-c5ccccc5)c4c3)ccc2o1 [US9682141, 11]
